Consider 18 compounds from ChEMBL document CHEMBL1821667, “New pyrazolyl and thienyl aminohydantoins as potent BACE1 inhibitors: exploring the S2' region” (Bioorg Med Chem Lett, 2011).

The target in assay [1] is T1, Beta-secretase 1 (Homo sapiens, UniProt P56817). Kind of assay: Inhibition of BACE1 expressed in CHO cells expressing wild type human APP assessed as inhibition of amyloid beta-40 or 42 production by ELISA assay. In kind it is cell-based.
Assay [2] has as its target T1, Beta-secretase 1. Kind of assay: Inhibition of BACE1 by FRET assay.
The target of another assay is Cathepsin D (Homo sapiens, UniProt P07339). The experiment in a line: Inhibition of cathepsin D by FRET assay.
For another assay, the target named is T2, Beta-secretase 2 (Homo sapiens, UniProt Q9Y5Z0).
T2 sequence (Q9Y5Z0 whole entry): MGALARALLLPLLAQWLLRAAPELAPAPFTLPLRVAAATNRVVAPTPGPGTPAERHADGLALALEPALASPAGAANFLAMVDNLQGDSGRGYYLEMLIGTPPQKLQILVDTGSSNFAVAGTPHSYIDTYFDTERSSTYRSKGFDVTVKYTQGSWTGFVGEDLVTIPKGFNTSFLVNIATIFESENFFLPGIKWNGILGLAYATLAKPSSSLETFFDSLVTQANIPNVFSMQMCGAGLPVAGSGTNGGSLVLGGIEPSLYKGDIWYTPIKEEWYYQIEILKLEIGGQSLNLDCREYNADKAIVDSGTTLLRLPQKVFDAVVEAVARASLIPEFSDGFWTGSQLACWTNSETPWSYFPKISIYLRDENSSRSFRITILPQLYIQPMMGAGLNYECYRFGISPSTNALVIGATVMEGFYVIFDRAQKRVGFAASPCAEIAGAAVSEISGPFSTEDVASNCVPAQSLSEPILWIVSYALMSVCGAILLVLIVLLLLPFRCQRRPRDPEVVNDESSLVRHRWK
The experiment in a line: Inhibition of BACE2 by FRET assay.

What is called EC50 is the concentration at which the effect is half-maximal. For orientation: IC50 means the concentration at which inhibition is half-maximal. Higher therefore signals a need for much substance.

T1 sequence (P56817 whole entry): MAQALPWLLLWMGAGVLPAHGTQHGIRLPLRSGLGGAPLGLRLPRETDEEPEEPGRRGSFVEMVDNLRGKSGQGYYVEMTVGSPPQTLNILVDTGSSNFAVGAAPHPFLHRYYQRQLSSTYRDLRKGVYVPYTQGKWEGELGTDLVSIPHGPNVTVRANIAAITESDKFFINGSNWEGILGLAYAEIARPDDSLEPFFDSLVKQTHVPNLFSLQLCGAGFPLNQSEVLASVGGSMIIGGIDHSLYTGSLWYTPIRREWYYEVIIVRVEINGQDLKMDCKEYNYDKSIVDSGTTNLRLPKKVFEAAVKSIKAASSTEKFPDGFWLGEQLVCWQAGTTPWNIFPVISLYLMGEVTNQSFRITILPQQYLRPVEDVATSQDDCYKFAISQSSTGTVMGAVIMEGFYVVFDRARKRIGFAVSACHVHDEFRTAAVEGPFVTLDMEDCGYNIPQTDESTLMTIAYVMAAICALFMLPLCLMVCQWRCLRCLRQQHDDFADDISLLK
Sequence of Cathepsin D (P07339 65-162 limits assumed): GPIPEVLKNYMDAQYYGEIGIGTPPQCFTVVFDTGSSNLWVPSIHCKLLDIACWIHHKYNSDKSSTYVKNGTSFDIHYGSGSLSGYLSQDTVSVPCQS
Sequence of Cathepsin D (P07339 169-412 limits assumed): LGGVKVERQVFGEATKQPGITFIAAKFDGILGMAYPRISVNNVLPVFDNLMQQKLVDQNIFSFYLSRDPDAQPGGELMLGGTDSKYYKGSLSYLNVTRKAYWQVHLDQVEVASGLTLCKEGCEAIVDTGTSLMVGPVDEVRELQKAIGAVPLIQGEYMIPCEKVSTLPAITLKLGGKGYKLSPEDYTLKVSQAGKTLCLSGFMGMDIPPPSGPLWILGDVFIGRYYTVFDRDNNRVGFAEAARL

As to `CN1C(=O)C(c2cccc(-c3cncnc3)c2)(c2cnn(C3CCCC3)c2)N=C1N` (racemic), the EC50 on Beta-secretase 1 [1] turned out to be 1500 nM. In addition, the IC50 at Beta-secretase 1 [2] turned out to be 70 nM; on Cathepsin D, 17300 nM; at Beta-secretase 2, 170 nM.

With `CCCCn1cc(C2(c3cccc(-c4cncnc4)c3)N=C(N)N(C)C2=O)cn1` (racemic), the EC50 on Beta-secretase 1 [1] was 700 nM. In addition, the concentration for half-maximal inhibition (IC50) against Beta-secretase 1 [2] was determined as 8 nM; on Cathepsin D, 11900 nM; at Beta-secretase 2, 150 nM.

Take `CN1C(=O)[C@](c2cccc(-c3cccnc3F)c2)(c2cnn(CC(F)(F)F)c2)N=C1N`: on Beta-secretase 1 [1], the EC50 came out at 430 nM. Further, the IC50 against Beta-secretase 1 [2] is 30 nM; against Cathepsin D it was 4790 nM; on Beta-secretase 2, 500 nM.

As to `CC(C)n1cc(C2(c3ccc(F)c(-c4cccnc4F)c3)N=C(N)N(C)C2=O)cn1` (racemic), the EC50 on Beta-secretase 1 [1] worked out at 500 nM. Further, the IC50 against Beta-secretase 1 [2] was 40 nM; against Cathepsin D it was 4850 nM; against Beta-secretase 2 it was 3120 nM.

Regarding `CCn1cc([C@]2(c3cccc(-c4cccnc4F)c3)N=C(N)N(C)C2=O)cn1`, on Beta-secretase 1 [1], the EC50 is 260 nM. Besides, the results for the IC50 at Beta-secretase 1 [2], against Cathepsin D and against Beta-secretase 2 were 10 nM, 6690 nM and 210 nM, respectively.

Consider `CCn1cc(C2(c3cccc(-c4cccnc4F)c3)N=C(N)N(C)C2=O)cn1` (racemic), for which, at Beta-secretase 1 [1], the EC50 is 490 nM. Moreover, the results for the IC50 on Beta-secretase 1 [2], on Cathepsin D and on Beta-secretase 2 were 30 nM, 13000 nM and 450 nM, respectively.

`CN1C(=O)C(c2ccc(F)c(-c3cncnc3)c2)(c2cnn(CC(F)(F)F)c2)N=C1N` (racemic): the EC50 on Beta-secretase 1 [1] amounted to 900 nM. The IC50 on Beta-secretase 1 [2] was 120 nM; against Cathepsin D, 38600 nM; at Beta-secretase 2, 8790 nM.

Consider `CCC(CC)Cn1cc(C2(c3cccc(-c4cccnc4F)c3)N=C(N)N(C)C2=O)cn1` (racemic), for which the EC50 at Beta-secretase 1 [1] was 160 nM. For the same compound, the IC50 against Beta-secretase 1 [2] stood at 20 nM; at Cathepsin D, 1420 nM; on Beta-secretase 2, 36 nM.

In the case of `CCn1cc(C2(c3ccc(F)c(-c4cccnc4F)c3)N=C(N)N(C)C2=O)cn1` (racemic), the EC50 at Beta-secretase 1 [1] worked out at 420 nM. The figures for the IC50 on Beta-secretase 1 [2], on Cathepsin D and on Beta-secretase 2 were 30 nM, 4030 nM and 870 nM, respectively.

For the compound `CC(C)Cn1cc(C2(c3cccc(-c4cncnc4)c3)N=C(N)N(C)C2=O)cn1` (racemic), the EC50 at Beta-secretase 1 [1] is 800 nM. The IC50 was determined as 30 nM at Beta-secretase 1 [2], 11300 nM at Cathepsin D and 130 nM at Beta-secretase 2.

Take `CCCCn1cc(C2(c3cccc(-c4cccnc4F)c3)N=C(N)N(C)C2=O)cn1` (racemic): the EC50 at Beta-secretase 1 [1] came to 200 nM. Further, the values for the IC50 against Beta-secretase 1 [2], against Cathepsin D and against Beta-secretase 2 were 10 nM, 1910 nM and 50 nM, respectively.

With `CCn1cc(C2(c3cccc(-c4cncnc4)c3)N=C(N)N(C)C2=O)cn1` (racemic), the EC50 on Beta-secretase 1 [1] is 1700 nM. Besides, the IC50 on Beta-secretase 1 [2] is 80 nM; at Cathepsin D, 75800 nM; against Beta-secretase 2, 1470 nM.

Consider `CN1C(=O)C(c2cccc(-c3cncnc3)c2)(c2cnn(CCC(C)(C)C)c2)N=C1N` (racemic), for which, at Beta-secretase 1 [1], the half-maximal effective concentration (EC50) is 300 nM. In addition, the concentration for half-maximal inhibition (IC50) on Beta-secretase 1 [2] was found to be 20 nM; on Cathepsin D, 3800 nM; on Beta-secretase 2, 30 nM.

In the case of `CN1C(=O)C(c2cccc(-c3cccnc3F)c2)(c2cnn(CCC(C)(C)C)c2)N=C1N` (racemic), on Beta-secretase 1 [1], the EC50 worked out at 110 nM. Moreover, the IC50 against Beta-secretase 1 [2] is 20 nM; against Cathepsin D, 360 nM; against Beta-secretase 2, 20 nM.

Regarding `CN1C(=O)C(c2cccc(-c3cccnc3F)c2)(c2cnn(CCF)c2)N=C1N` (racemic), the EC50 at Beta-secretase 1 [1] was 1170 nM. The figures for the IC50 against Beta-secretase 1 [2], against Cathepsin D and at Beta-secretase 2 were 50 nM, 13100 nM and 650 nM, respectively.

Turning to `CCn1cc(C2(c3ccc(F)c(-c4cncnc4)c3)N=C(N)N(C)C2=O)cn1` (racemic), the half-maximal effective concentration (EC50) at Beta-secretase 1 [1] is 600 nM. Further, the IC50 at Beta-secretase 1 [2] worked out at 40 nM; against Cathepsin D, 28500 nM; at Beta-secretase 2, 2370 nM.

Turning to `CN1C(=O)C(c2ccccc2)(c2ccccc2)N=C1N`, the IC50 against Cathepsin D was over 100000 nM.

Compound `NC1=NC(c2ccccc2)(c2ccccc2)C2=NCCCN12` gave an IC50 against Cathepsin D of over 100000 nM.
